Measured values as given in patent US6540991B2, “Stabilized active materials” (3M Innovative Properties Company, priority 2001, dated 2003).

Assay: typical duration of codlemone in the intended environment (stabilization of insect pheromone)
Format: physicochemical
Conditions: dissipation into the intended environment; codling moth pheromone, nonstabilized vs stabilized with 2,2′-Methylenebis(6-t-butyl-p-cresol)
Text: Because the insect pheromone can be provided in a stabilized format, a long lasting delivery system may be engineered to provide slow release over a long duration of time. The stabilized format allows for a slow release from a single application without spiking as may be obtainable from multiple applications. “Spiking” as used herein may be triggered by instantaneous or short-term release of the active agents from the shell. Since a mating cycle of a given insect pest may last up to 4-6 weeks in length, the slow release of an insect pheromone may be desirable to provide effective control of insect mating over the duration. Thus, the present invention may be used to control the release rate of insect pheromones thereby effectively controlling and disrupting the mating behavior of the species in a particular intended environment. For example, an insect pheromone for codling moth can be made to steadily dissipate into the intended environment over the duration of a mating cycle for codling moth. A typical duration for a nonstabilized codlemone, the insect pheromone for the codling moth is less than 1 week, as against about 6 weeks for codlemone stabilized according to the present invention.

- typical duration: less than 1 week
SMILES: C/C=C/C=C/CCCCCCCO [nonstabilized codlemone, E,E-8,10 C12 alcohol]
